In one assay the target is T1, human NPR1 (Homo sapiens, UniProt P16066).
T1 construct: host or cells: CHO-K1
T1 sequence (P16066 33-1061): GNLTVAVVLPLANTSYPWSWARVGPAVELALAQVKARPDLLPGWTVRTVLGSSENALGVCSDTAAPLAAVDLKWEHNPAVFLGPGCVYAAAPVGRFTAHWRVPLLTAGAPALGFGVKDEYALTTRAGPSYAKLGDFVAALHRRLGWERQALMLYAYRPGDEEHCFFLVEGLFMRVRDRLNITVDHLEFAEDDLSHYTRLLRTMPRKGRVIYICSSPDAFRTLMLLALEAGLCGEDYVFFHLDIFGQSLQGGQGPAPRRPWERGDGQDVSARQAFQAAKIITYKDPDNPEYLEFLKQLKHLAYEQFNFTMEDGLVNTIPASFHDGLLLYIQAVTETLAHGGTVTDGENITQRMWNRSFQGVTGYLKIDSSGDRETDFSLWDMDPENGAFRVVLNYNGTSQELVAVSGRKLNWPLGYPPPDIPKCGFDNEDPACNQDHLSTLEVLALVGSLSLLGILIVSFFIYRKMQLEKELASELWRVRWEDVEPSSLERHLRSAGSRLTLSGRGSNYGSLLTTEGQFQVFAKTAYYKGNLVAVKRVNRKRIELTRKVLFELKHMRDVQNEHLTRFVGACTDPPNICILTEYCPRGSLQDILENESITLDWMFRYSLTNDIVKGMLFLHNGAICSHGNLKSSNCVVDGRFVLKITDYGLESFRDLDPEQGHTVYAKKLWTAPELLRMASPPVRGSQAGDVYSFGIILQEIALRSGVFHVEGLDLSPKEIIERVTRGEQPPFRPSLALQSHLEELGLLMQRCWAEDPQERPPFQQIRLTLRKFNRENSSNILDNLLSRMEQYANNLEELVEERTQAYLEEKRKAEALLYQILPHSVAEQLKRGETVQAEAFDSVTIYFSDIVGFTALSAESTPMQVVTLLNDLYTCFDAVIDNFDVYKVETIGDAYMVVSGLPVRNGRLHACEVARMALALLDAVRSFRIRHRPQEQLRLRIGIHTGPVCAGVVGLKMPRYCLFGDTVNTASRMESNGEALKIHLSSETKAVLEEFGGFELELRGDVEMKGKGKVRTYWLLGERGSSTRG
In words: Cellular cGMP production assay, human NPR1 expressing CHO-K1 cells (CisBio HTRF). Type of assay: cell-based. The settings on record: for AC50: cGMP production, 30 min at 37° C., 12-point dose-response from 30 μM; for Human NPR1 Amax (% of ANP): maximum cGMP production as percentage of the maximum cGMP produced with ANP. In short, it runs like this: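 Read-out was HTRF (excitation 317 nm, emission 665 nm), with cGMP quantified as Delta F against a calibrator standard curve. Beforehand, cells were exposed for 30 min at 37 °C to compound (30 μM top, twelve 3-fold steps) in IBMX-containing PBS/BSA buffer, then lysed.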

The target of another assay is monkey NPR1 (Macaca fascicularis, UniProt A0A7N9DBT9). In words: Cellular cGMP production assay, monkey NPR1 expressing CHO-K1 cells (CisBio HTRF). Format: cell-based. The note with it: for Monkey NPR1 Amax (% of ANP): maximum cGMP production as percentage of the maximum cGMP produced with ANP. How it is done:
Cellular cGMP is a major second messenger that mediates cell activities and is synthesized by activated NPR1 triggered by binding of the natural ligand ANP. […] The assay was performed according to manufacturer's instructions with minor deviations. […] All compound stocks were diluted in PBS+0.1% BSA at 2-fold the final assay concentration. After addition of 10 μL/well of assay buffer (PBS+0.1% BSA+1 mM IBMX) and 10 μL/well of the compounds in different concentrations (12-point dose-response with 3-fold dilutions from a top concentration of 30 μM), the plate was incubated for 30 min at 37° C. to allow for cGMP production. In parallel, a standard curve using a calibrator (contained in the kit) was generated. The cells were lysed and a mix of cGMP-d2 and anti-cGMP-cryptate was added and incubated for 1 h at room temperature. The readout was performed using an Envision plate reader (PerkinElmer) with an excitation wavelength of 317 nm and an emission wavelength of 665 nm. cGMP concentration (Delta F [° %]) was calculated according to the following formulae: […]

Where [1] appears, read: cGMP production, monkey NPR1 CHO-K1 cells, 30 min at 37° C., 12-point dose-response from 30 μM, read-out: Monkey NPR1 AC50.

Read-outs that look alike come from different tables or passages of the source.

Sequence of monkey NPR1 (A0A7N9DBT9 entry or part of it): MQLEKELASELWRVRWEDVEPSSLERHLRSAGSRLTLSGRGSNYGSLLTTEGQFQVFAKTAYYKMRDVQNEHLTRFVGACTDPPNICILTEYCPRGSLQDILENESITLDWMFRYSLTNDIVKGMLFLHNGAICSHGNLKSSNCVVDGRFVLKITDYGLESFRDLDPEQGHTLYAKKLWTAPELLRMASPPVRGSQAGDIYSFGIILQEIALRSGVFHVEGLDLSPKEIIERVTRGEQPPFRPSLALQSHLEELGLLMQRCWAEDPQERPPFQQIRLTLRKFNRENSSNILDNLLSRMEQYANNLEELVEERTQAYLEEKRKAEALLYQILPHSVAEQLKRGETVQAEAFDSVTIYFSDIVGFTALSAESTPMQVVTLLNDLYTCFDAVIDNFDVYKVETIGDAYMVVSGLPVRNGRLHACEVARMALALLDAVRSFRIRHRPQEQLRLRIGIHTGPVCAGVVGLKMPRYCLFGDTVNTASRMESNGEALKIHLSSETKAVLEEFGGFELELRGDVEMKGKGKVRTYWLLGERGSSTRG

In the case of `CC[C@@H](Nc1nc2c(c(N[C@@H](CN3CCC[C@H](C)C3)c3cnn(C(C)C)c3)n1)C[C@H](c1ccccc1)CC2)[C@H]1CC[C@H](C(=O)O)CC1` [Compound 22, (1R,4r)-4-((R)-1-(((R)-4-(((R)-1-(1-isopropyl-1H-pyrazol-4-yl)-2-((S)-3-methylpiperidin-1-yl)ethyl)amino)-6-phenyl-5,6,7,8-tetrahydroquinazolin-2-yl)amino)propyl)cyclohexane-1-carboxylic acid], on human NPR1, the AC50 stood at 114 nM and the “Human NPR1 Amax (% of ANP)” value is 102.676 % of ANP. Also, the half-maximal activity concentration (AC50) at monkey NPR1 (setting [1]) turned out to be 74 nM. On monkey NPR1 (monkey NPR1 CHO-K1 cells), the “Monkey NPR1 Amax (% of ANP)” value is recorded as 103.742 % of ANP.

With `CC[C@H]([C@H]1CC[C@H](C(=O)O)CC1)N(C)c1nc2c(c(N[C@@H](CN3CCC[C@H](C)C3)c3cnn(C)c3)n1)C[C@H](c1cccc(F)c1)CC2` [Compound 23, (1R,4r)-4-((R)-1-(((R)-6-(3-fluorophenyl)-4-(((R)-1-(1-methyl-1H-pyrazol-4-yl)-2-((S)-3-methylpiperidin-1-yl)ethyl)amino)-5,6,7,8-tetrahydroquinazolin-2-yl)(methyl)amino)propyl)cyclohexane-1-carboxylic acid], the results for the AC50 at human NPR1 and at monkey NPR1 were 115 nM and 72 nM, respectively. Moreover, the “Human NPR1 Amax (% of ANP)” value at human NPR1 is 120.018 % of ANP. Further, on monkey NPR1 (monkey NPR1 CHO-K1 cells), the “Monkey NPR1 Amax (% of ANP)” value is reported as 132.182 % of ANP.

`CC[C@@H](Nc1nc2c(c(N[C@@H](CN3C4CCCC3CC4)c3sc(C)nc3C)n1)C[C@H](c1cccc(F)c1)CC2)[C@H]1CC[C@H](C(=O)O)CC1` [Compound 24, (1R,4r)-4-((1R)-1-(((6R)-4-(((1S)-2-(8-azabicyclo[3.2.1]octan-8-yl)-1-(2,4-dimethylthiazol-5-yl)ethyl)amino)-6-(3-fluorophenyl)-5,6,7,8-tetrahydroquinazolin-2-yl)amino)propyl)cyclohexane-1-carboxylic acid]: the AC50 stood at 125 nM on human NPR1 and 102 nM at monkey NPR1. Moreover, the “Human NPR1 Amax (% of ANP)” value at human NPR1 is reported as 112.884 % of ANP. Further, at monkey NPR1 (monkey NPR1 CHO-K1 cells), the “Monkey NPR1 Amax (% of ANP)” value is given as 128.837 % of ANP.

Turning to `CC[C@@H](N(C)c1nc2c(c(N[C@@H](CN3C4CCCC3CC4)c3cnn(C)c3)n1)C[C@H](c1ccc(F)cc1)CC2)C12CC(C(=O)O)(C1)C2` [Compound 25, 3-((1R)-1-(((6R)-4-(((1R)-2-(8-azabicyclo[3.2.1]octan-8-yl)-1-(1-methyl-1H-pyrazol-4-yl)ethyl)amino)-6-(4-fluorophenyl)-5,6,7,8-tetrahydroquinazolin-2-yl)(methyl)amino)propyl)bicyclo[1.1.1]pentane-1-carboxylic acid], on human NPR1, the AC50 amounted to 126 nM and the “Human NPR1 Amax (% of ANP)” value was 102.816 % of ANP. At monkey NPR1, this molecule yielded an AC50 of 108 nM. For the same molecule, the “Monkey NPR1 Amax (% of ANP)” value at monkey NPR1 (monkey NPR1 CHO-K1 cells) is listed as 106.072 % of ANP.

In the case of `CC[C@@H](Nc1nc2c(c(N[C@@H](CN3C4CCCC3CC4)c3scnc3C)n1)C[C@H](c1cccc(F)c1)CC2)[C@H]1CC[C@H](C(=O)O)CC1` [Compound 26, (1R,4r)-4-((1R)-1-(((6R)-4-(((1S)-2-(8-azabicyclo[3.2.1]octan-8-yl)-1-(4-methylthiazol-5-yl)ethyl)amino)-6-(3-fluorophenyl)-5,6,7,8-tetrahydroquinazolin-2-yl)amino)propyl)cyclohexane-1-carboxylic acid], on human NPR1, the AC50 worked out at 131 nM and the “Human NPR1 Amax (% of ANP)” value is listed as 115.149 % of ANP. The AC50 at monkey NPR1 is 91 nM. Moreover, on monkey NPR1 (monkey NPR1 CHO-K1 cells), the “Monkey NPR1 Amax (% of ANP)” value was 102.667 % of ANP.

For `CC[C@@H](N(C)c1nc2c(c(N[C@@H](CN3C4CCCC3CCC4)c3cnn(C)c3)n1)C[C@](C)(c1ccccc1)CC2)C12CC(C(=O)O)(C1)C2` [Compound 27, 3-((R)-1-(((R)-4-(((R)-2-((1S,5S)-9-azabicyclo[3.3.1]nonan-9-yl)-1-(1-methyl-1H-pyrazol-4-yl)ethyl)amino)-6-methyl-6-phenyl-5,6,7,8-tetrahydroquinazolin-2-yl)(methyl)amino)propyl)bicyclo[1.1.1]pentane-1-carboxylic acid], on human NPR1, the activity was half-maximal at 137 nM (AC50) and the “Human NPR1 Amax (% of ANP)” value is on record as 92.458 % of ANP. Also, the AC50 at monkey NPR1 was determined as 137 nM. For the same molecule, the “Monkey NPR1 Amax (% of ANP)” value on monkey NPR1 (monkey NPR1 CHO-K1 cells) is recorded as 102.654 % of ANP.

For `CC[C@@H](N(C)c1nc2c(c(N[C@@H](CN3C4CCCC3CC4)c3cnn(C)c3)n1)C[C@](C)(c1ccccc1)CC2)C12CC(C(=O)O)(C1)C2` [Compound 28, 3-((1R)-1-(((6R)-4-(((1R)-2-(8-azabicyclo[3.2.1]octan-8-yl)-1-(1-methyl-1H-pyrazol-4-yl)ethyl)amino)-6-methyl-6-phenyl-5,6,7,8-tetrahydroquinazolin-2-yl)(methyl)amino)propyl)bicyclo[1.1.1]pentane-1-carboxylic acid], at human NPR1, half-maximal activity (AC50) was put at 139 nM and the “Human NPR1 Amax (% of ANP)” value was 103.247 % of ANP. Besides, on monkey NPR1, the AC50 is 134 nM. Further, the “Monkey NPR1 Amax (% of ANP)” value on monkey NPR1 (monkey NPR1 CHO-K1 cells) is on record as 105.314 % of ANP.

For `CC[C@H]([C@H]1CC[C@H](C(=O)O)CC1)N(C)c1nc2c(c(N[C@@H](CN3C4CCCC3CCC4)c3cnn(C)c3)n1)C[C@H](c1cccc(F)c1)CC2` [Compound 29, (1R,4r)-4-((R)-1-(((R)-4-(((R)-2-((1S,5S)-9-azabicyclo[3.3.1]nonan-9-yl)-1-(1-methyl-1H-pyrazol-4-yl)ethyl)amino)-6-(3-fluorophenyl)-5,6,7,8-tetrahydroquinazolin-2-yl)(methyl)amino)propyl)cyclohexane-1-carboxylic acid], on human NPR1, the activity was half-maximal at 140 nM (AC50) and the “Human NPR1 Amax (% of ANP)” value is given as 102.911 % of ANP. The molecule also had an AC50 at monkey NPR1 of 137 nM. Further, the “Monkey NPR1 Amax (% of ANP)” value at monkey NPR1 (monkey NPR1 CHO-K1 cells) is reported as 128.079 % of ANP.

In the case of `CC[C@@H](Nc1nc2c(c(N[C@@H](CN3CCCCC3)c3cnn(CC)c3)n1)C[C@H](c1cccc(F)c1)CC2)[C@H]1CC[C@H](C(=O)O)CC1` [Compound 30, (1R,4r)-4-((R)-1-(((R)-4-(((R)-1-(1-ethyl-1H-pyrazol-4-yl)-2-(piperidin-1-yl)ethyl)amino)-6-(3-fluorophenyl)-5,6,7,8-tetrahydroquinazolin-2-yl)amino)propyl)cyclohexane-1-carboxylic acid], the results for the AC50 at human NPR1 and on monkey NPR1 (setting [1]) were 140 nM and 77 nM, respectively. In addition, at human NPR1, the “Human NPR1 Amax (% of ANP)” value is 99.863 % of ANP. For the same molecule, the “Monkey NPR1 Amax (% of ANP)” value on monkey NPR1 (monkey NPR1 CHO-K1 cells) is reported as 99.091 % of ANP.

With `CC[C@H]([C@H]1CC[C@H](C(=O)O)CC1)N(C)c1nc2c(c(N[C@@H](CN3C4CCCC3CC4)c3cnn(C)c3)n1)C[C@H](c1ccc(F)cc1)CC2` [Compound 31, (1R,4r)-4-((1R)-1-(((6R)-4-(((1R)-2-(8-azabicyclo[3.2.1]octan-8-yl)-1-(1-methyl-1H-pyrazol-4-yl)ethyl)amino)-6-(4-fluorophenyl)-5,6,7,8-tetrahydroquinazolin-2-yl)(methyl)amino)propyl)cyclohexane-1-carboxylic acid], on human NPR1, half-maximal activity (AC50) was put at 144 nM and the “Human NPR1 Amax (% of ANP)” value is 92.978 % of ANP. The molecule further returned an AC50 on monkey NPR1 of 89 nM. Also, the “Monkey NPR1 Amax (% of ANP)” value at monkey NPR1 (monkey NPR1 CHO-K1 cells) is reported as 100.914 % of ANP.

The record behind these values is patent US12129246B1, “Hydroquinazoline derivatives for the treatment of a disease or disorder” (Novartis AG, priority 2023, dated 2024).
